The numbers were not newly measured in publication PMC7238120, “Strong and Selective Inhibitory Effects of the Biflavonoid Selamariscina A against CYP2C8 and CYP2C9 Enzyme Activities in Human Liver Microsomes” (Pharmaceutics, 2020), which cites them from elsewhere.

The target in series [1] is T1, CYP1A2 (Homo sapiens, UniProt P05177).
T1 construct: incubation mixtures containing pooled human liver microsomes (HLMs, XTreme 200, XenoTech); tissue XenoTech XTreme 200; host or cells: pooled human liver microsomes
T1 sequence (P05177 1-516): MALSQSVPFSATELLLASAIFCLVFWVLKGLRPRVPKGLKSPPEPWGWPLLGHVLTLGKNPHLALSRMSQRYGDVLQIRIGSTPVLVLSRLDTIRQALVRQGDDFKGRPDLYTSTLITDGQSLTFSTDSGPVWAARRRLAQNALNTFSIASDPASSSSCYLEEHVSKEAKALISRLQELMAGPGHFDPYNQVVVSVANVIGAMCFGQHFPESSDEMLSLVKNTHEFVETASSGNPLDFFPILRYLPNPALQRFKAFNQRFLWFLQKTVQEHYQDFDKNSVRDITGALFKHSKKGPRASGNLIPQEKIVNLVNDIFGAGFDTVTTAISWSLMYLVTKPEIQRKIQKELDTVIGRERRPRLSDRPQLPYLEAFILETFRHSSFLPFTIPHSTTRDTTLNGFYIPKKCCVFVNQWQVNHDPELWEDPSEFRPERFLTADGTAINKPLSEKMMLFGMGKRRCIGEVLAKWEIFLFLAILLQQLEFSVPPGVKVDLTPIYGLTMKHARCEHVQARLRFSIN
Set-up: method as in PMID 7483658. As to conditions: human liver microsomes; read-out: Ki, CYP1A2, competitive inhibition; cited from earlier work.

Series [2] has as its target T2, UGT1A1 (Homo sapiens, UniProt P22309).
T2 sequence (P22309 26-533): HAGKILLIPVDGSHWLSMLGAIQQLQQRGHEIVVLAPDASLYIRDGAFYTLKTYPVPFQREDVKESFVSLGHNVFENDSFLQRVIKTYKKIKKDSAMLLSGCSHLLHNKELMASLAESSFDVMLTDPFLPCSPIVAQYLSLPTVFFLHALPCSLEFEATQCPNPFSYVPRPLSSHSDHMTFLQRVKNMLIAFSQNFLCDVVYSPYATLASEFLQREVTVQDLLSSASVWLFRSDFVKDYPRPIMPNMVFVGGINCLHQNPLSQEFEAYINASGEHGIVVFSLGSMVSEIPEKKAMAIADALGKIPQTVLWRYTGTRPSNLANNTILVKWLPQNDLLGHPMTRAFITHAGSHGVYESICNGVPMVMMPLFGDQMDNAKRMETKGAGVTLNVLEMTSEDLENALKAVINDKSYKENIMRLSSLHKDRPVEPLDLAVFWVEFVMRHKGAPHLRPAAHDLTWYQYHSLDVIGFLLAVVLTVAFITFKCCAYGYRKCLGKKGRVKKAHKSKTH
Also on record: method as in PMID 12386134. To be noted: read-out: IC50, UGT1A1-mediated estradiol glucuronidation; cited from earlier work.

Series [3] concerns the target CYP2C9 (Homo sapiens, UniProt P11712). To be noted: read-out: Ki, CYP2C9, known inhibitor; cited from earlier work.
Series [4] addresses T3, CYP2C8 (Homo sapiens, UniProt P10632).
T3 sequence (P10632 1-490): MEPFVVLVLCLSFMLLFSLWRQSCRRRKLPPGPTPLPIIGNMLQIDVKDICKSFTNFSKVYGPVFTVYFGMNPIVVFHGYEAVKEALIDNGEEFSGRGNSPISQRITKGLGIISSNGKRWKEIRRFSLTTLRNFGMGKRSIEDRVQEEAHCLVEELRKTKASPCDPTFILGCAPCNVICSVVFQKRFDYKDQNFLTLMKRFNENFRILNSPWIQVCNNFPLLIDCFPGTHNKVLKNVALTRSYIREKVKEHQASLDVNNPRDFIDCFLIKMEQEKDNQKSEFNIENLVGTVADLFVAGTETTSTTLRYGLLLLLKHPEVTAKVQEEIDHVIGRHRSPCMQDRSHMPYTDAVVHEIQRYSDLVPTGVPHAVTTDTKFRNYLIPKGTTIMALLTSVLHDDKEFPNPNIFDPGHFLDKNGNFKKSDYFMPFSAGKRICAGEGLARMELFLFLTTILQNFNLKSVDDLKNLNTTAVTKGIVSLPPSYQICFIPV
To be noted: cited from earlier work.

In series [5] the test system is CYP3A4. Set-up: method as in PMID 1602384. To be noted: HLMs; cited from earlier work.
The mark [6] stands for this setting: read-out: Ki, CYP2C8, known inhibitor.

The structures appear in SMILES notation. Read-outs that look alike come from different tables or passages of the source. Where only a bound is given, the exact number is not on record here.

CYP2C9, sequence (P11712 whole entry): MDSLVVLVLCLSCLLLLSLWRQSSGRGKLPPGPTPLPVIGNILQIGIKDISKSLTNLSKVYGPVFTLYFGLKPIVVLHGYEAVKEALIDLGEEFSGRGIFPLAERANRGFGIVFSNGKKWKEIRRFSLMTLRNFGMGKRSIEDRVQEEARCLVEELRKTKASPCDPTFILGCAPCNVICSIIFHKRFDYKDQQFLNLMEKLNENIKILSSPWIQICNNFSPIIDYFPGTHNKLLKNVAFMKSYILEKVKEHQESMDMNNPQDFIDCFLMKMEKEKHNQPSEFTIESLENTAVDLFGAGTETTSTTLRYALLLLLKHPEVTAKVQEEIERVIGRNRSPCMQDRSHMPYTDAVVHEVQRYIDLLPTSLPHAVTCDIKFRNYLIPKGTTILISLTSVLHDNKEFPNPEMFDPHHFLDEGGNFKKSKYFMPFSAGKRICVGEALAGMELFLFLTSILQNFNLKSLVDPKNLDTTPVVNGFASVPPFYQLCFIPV

For the compound `COc1ccc(-c2cc(=O)c3c(OC)c(OC)c(OC)c(OC)c3o2)cc1` [tangeretin], in series [1], the Ki was 68 nM. Also, in series [2], the IC50 was 1000 nM.

For `COCCCC/C(=N\OCCN)c1ccc(C(F)(F)F)cc1` [fluvoxamine], the Ki in series [3] is 630 to 16000 nM.

With `COc1cc(C(=O)NS(=O)(=O)c2ccccc2C)ccc1Cc1cn(C)c2ccc(NC(=O)OC3CCCC3)cc12` [zafirlukast], the Ki in series [4] (read-out: Ki, CYP2C8, well-known inhibitor) is 390 nM.

Turning to `CNC(=O)c1ccccc1Sc1ccc2c(/C=C/c3ccccn3)n[nH]c2c1` [axitinib], in series [4] (setting [6]), the Ki is 170 nM.

As to `CNCCC(Oc1ccc(C(F)(F)F)cc1)c1ccccc1` (stereo not shown) [fluoxetine], the Ki in series [3] was 19000 to 87000 nM.

Consider `CCOC(=O)C1=C(C)NC(C)=C(C(=O)OC)C1c1cccc(Cl)c1Cl` (stereo not shown) [felodipine], for which, in series [4] (read-out: IC50, CYP2C8, known inhibitor), the IC50 was 1200 nM.

With `Cc1cn(-c2cc(NC(=O)c3ccc(C)c(Nc4nccc(-c5cccnc5)n4)c3)cc(C(F)(F)F)c2)cn1` [nilotinib], the Ki in series [4] (setting [6]) was 100 nM.

For `O=c1c(O)c(-c2ccc(O)c(O)c2)oc2cc(O)cc(O)c12` [quercetin], the “Concentrations inhibiting metabolism of nifedipine and felodipine by CYP3A4” value in series [5] is over 10 µM.

For the compound `O=c1c(O)c(-c2ccc(O)cc2)oc2cc(O)cc(O)c12` [kaempferol], in series [5], the “Concentrations inhibiting metabolism of nifedipine and felodipine by CYP3A4” value is over 10 µM.

One may read the Ki as a measure of affinity in units of concentration, obtained from inhibition or displacement. One may read the IC50 as the point on the concentration scale where inhibition reaches its midpoint.
